Lipid content data for two compounds are collected here from patent publication US10584361B2, “Algae having intracellular lipid particles and high lipid content” (THE UNIVERSITY OF AKRON, priority 2012, dated 2020).

Read-outs that look alike come from different tables or passages of the source.

Assay [1] deals with algae. Description: Lipid enhancement with glycerol (algae re-suspended in salts solution). To be noted: 0.5, 1 and 5 g/L glycerol (all systems), within 24 h; pH 5; then decreased slightly. Type of assay: cell-based. As to the method: The specific procedure was: • i. […] Rotate 20 min at 40% output (Glas-Col) • vi. Centrifuge at 3620 g for 5 min • vii.
Algae were first cultured and then collected by centrifuge.
The thin layer chromatography analysis was performed the same as in Experiment 2.

The subject of assay [2] is algae. Conditions: 0.5 g/L sodium acetate, within 6 hours, increased from 40%; pH 5; then decreased.
Procedure: For the dry weight analysis, algal cells were collected by centrifuging at 300 g for 10 min. After washing with deionized water once, the precipitant of the sample was transferred to pre-weighed aluminum plates and dried to a constant weight in an oven at 70 degrees C.
For the lipid analysis, the algal cells were collected at 300 g for 10 min. Then the lipid content of the precipitant from the sample was analyzed with the same lipid extraction procedure, which is modified from the Folch method. The specific procedure was: • i. Add 8 mL of chloroform and methanol mixture (2:1, v/v) to the sample • ii. Add 0.1 mL of HCl (5 M) to the sample • iii. Gradually add deionized water to the sample until a second phase appears • iv. Vortex for 3 min at full power (Vortex-Genie 2) • v. Rotate 20 min at 40% output (Glas-Col) • vi. Centrifuge at 3620 g for 5 min • vii. Collect the lower chloroform phase into a pre-weighed drying vessel • viii. Add 5 mL of chloroform and methanol mixture (2:1, v/v) to the sample and repeat steps iv, v, vi and vii • ix. Air dry the vessel to a constant weight and measure the weight.
Algae were first cultured and then collected by centrifuge. After washing with deionized water once, algae were re-suspended into salts solution (Table 1). […] During the batch studies, the pH of all systems was maintained at 5 with 0.05 mol/L NaOH and 0.05 mol/L HCl. […]

With `OCC(O)CO` [glycerol], the lipid content entry in the assay with algae [1] was “about 40 % of the dry weight”. For `CC(=O)[O-].[Na+]` [sodium acetate], the lipid content in the assay on algae [2] is recorded as 65 % of the dry weight.
